US6793925B2 (priority 1999, dated 2004)
≈ marks a conversion by molar mass, not a printed value. Bridge positions count the residues as written; N and C are the ends. Square brackets hold non-standard residues; d marks the D form. Peptide text beside a SMILES is read from it. * marks the point of attachment. Asp(3S-OH) = N[C@H](C(=O)O)[C@H](O)C(=O)O; Thr(4-Cl) = N[C@H](C(=O)O)[C@H](O)CCl; X1 = CCCCCCCCCCCC(O)C(O)CC(=O)*; aThr = C[C@H](O)[C@H](N)C(=O)O; X2 = CCCCCCCCCC(O)CC(=O)*; dDab = NCC[C@@H](N)C(=O)O; Dab = NCC[C@H](N)C(=O)O; Dhb = C/C=C(\N)C(=O)O

Columns and labels:
Assay type in all cases: cell-based
Details in all cases: complete inhibition of growth, Sabourauds and dextrose broth, 35° C., 48 hr, highest concentration 20 μg/ml
Aspergillus fumigatus = experiment: microtiter broth dilution antifungal assay (MIC)
Description: (§1) The presence or amount of a pseudomycin or mixture of pseudomycins can be determined by measuring the antifungal activity of a preparation. Antifungal activity was determined in vitro by obtaining the minimum inhibitory concentration (MIC) of the preparation using a standard agar dilution test or a disc-diffusion test. A preparation of one or more pseudomycins can be an extract of a cell culture, or a more purified mixture. A typical fungus employed in testing antifungal activity is C. albicans. Antifungal activity was considered significant when the test preparation caused 10-12 mm diameter zones of inhibition on Candida albicans x657 seeded agar plates.
(§2) The antifungal studies were conducted using a microtiter broth dilution assay according to National Committee for Clinical Laboratory Standards guidelines in 96 well microtiter plates. Sabourauds and dextrose broth was adjusted to contain 2.5×10^4 conida/ml. Test compound was dissolved in water and tested in two-fold dilutions starting with the highest concentration of 20 μg/ml. Plates were incubated at 35° C. for 48 hr.

C. parapsilosis = experiment: microtiter broth dilution antifungal assay (MIC)
Description: as §1, §2

Candida albicans = experiment: microtiter broth dilution antifungal assay (MIC)
Description: as §1, §2

Cryptococcus neoformans = experiment: microtiter broth dilution antifungal assay (MIC)
Description: as §1, §2

Histoplasma capsulatum = tested on: Histoplasma capsulatum

**Q.** With `C/C=C1\NC(=O)[C@H]([C@H](C)O)NC(=O)[C@H](CCN)NC(=O)[C@H](CCCCN)NC(=O)[C@H](CC(=O)O)NC(=O)[C@@H](CCN)NC(=O)[C@@H](NC(=O)CC(O)CCCCCCCCC)COC(=O)[C@H]([C@H](O)CCl)NC(=O)[C@H]([C@H](O)C(=O)O)NC1=O` (stereo partly drawn) [Pseudomycin B′, pseudomycin B′] (X2-S[dDab]DK[Dab][aThr][Dhb][Asp(3S-OH)][Thr(4-Cl)]; ester 1-C) as the compound, how does the MIC (Aspergillus fumigatus) read?
**A.** >20 µg/mL

**Q.** What about the MIC (C. parapsilosis) of the same compound?
**A.** 10 µg/mL (≈ 8.48 µM)

**Q.** And the MIC (Candida albicans)?
**A.** 10 µg/mL (≈ 8.48 µM)

**Q.** What about the MIC (Cryptococcus neoformans) of the same compound?
**A.** 1.25 µg/mL (≈ 1.06 µM)

**Q.** And the MIC (Histoplasma capsulatum)?
**A.** 1.25-5.0 μ/ml

**Q.** What does the source list for `C/C=C1\NC(=O)[C@H]([C@H](C)O)NC(=O)[C@H](CCN)NC(=O)[C@H](CCCCN)NC(=O)[C@H](CC(=O)O)NC(=O)[C@@H](CCN)NC(=O)[C@@H](NC(=O)CC(O)C(O)CCCCCCCCCCC)COC(=O)[C@H]([C@H](O)CCl)NC(=O)[C@H]([C@H](O)C(=O)O)NC1=O` (stereo partly drawn) [Pseudomycin A′, pseudomycin A′] (X1-S[dDab]DK[Dab][aThr][Dhb][Asp(3S-OH)][Thr(4-Cl)]; ester 1-C)?
**A.** MIC (Aspergillus fumigatus): >20 µg/mL; MIC (C. parapsilosis): 5.0 µg/mL (≈ 4.04 µM); MIC (Candida albicans): 2.5 µg/mL (≈ 2.02 µM); MIC (Cryptococcus neoformans): 1.25 µg/mL (≈ 1.01 µM); MIC (Histoplasma capsulatum): 5.0 µg/mL (≈ 4.04 µM)
